Test results reported in patent publication US20250136559A1, “SMO MODULATOR COMPOUNDS” (OMASS THERAPEUTICS LIMITED, priority 2022, published 2025).

Assays:
Format in all cases: cell-based
mouse SMO^W535L = biological target: T1, mouse SMO^W535L (Mus musculus, UniProt P56726, W539L); test: Mouse assay: Gli1 qPCR in MEF cells stably expressing mouse SMO W535L; conditions: mSHh-treated, 24 hours; for IC50: Gli1 inhibition by qPCR, read-out: Mouse W535L pIC50 (converted); for Mouse W535L % Inh: percentage Gli1 inhibition
T1 construct: expressed in transfected cells
T1 sequence (P56726 33-793 W539L): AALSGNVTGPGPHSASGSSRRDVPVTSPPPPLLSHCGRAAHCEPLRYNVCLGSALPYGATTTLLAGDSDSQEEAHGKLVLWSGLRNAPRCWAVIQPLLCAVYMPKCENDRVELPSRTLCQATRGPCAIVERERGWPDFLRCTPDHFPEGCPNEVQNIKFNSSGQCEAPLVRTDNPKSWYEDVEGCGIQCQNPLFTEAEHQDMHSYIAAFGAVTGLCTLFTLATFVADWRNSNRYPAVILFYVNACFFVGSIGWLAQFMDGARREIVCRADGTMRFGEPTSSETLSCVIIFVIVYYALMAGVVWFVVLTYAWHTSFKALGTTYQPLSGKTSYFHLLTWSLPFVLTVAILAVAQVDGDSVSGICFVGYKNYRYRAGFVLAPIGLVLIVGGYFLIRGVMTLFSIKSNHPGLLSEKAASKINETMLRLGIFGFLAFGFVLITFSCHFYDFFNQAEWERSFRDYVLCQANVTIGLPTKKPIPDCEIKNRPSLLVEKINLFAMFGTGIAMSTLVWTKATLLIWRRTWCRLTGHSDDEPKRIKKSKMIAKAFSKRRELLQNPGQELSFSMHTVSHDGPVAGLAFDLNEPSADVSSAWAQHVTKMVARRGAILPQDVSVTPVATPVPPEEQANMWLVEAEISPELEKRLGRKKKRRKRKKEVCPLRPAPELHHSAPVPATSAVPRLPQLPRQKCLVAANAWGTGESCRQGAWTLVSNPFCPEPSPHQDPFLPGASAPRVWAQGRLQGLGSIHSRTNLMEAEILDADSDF
Procedure: (§1) Cell culture. All materials were purchased from Sigma-Aldrich, unless otherwise stated.
(§2) Compound treatment. […] After 1 hour incubation, cells were treated with assay medium containing mSHh prepared at 2.5× of final assay concentrations specified in the text and incubated for a further 24 hours at 37′C in a humidified 95% air/5% CO2 atmosphere prior to qPCR analysis.
(§3) Cell lysis and one-step qPCR. The Cells-to-CT™ 1-Step TaqMan® Kit was used in conjunction with TaqMan primer-probe assays for the detection of Gli1 (FAM, Mm00494654_m1) and Gusb (VIC, Mm01197698_m1) genes (all purchased from Life Technologies). Following 24 hours cell treatment, spent medium was removed and cells were washed with PBS before the application of lysis and stop solution as per manufacturer's instructions. The qPCR reactions were run in a 384-well PCR plate using master mix prepared according to manufacturer's instructions and cell lysate samples from treatment wells. Real-time PCR amplification was detected using the Bio-Rad CFX384 Touch PCR system. Four experimental replicates (two cell replicates and two qPCR replicates) were performed for each compound concentration tested. Real-time data were analysed using the CFX Maestro software (Bio-Rad) and obtained expression values were converted to percentage Gli1 inhibition by normalising to the average Gli1 expression of mSHh-treated control samples.

mouse SMO^WT = biological target: T2, mouse SMO^WT (Mus musculus, UniProt P56726); test: Mouse assay: Gli1 qPCR in MEF cells stably expressing mouse SMO WT; conditions: mSHh-treated, 24 hours; for IC50: Gli1 inhibition by qPCR, read-out: Mouse WT pIC50 (converted); for Mouse WT % Inh: percentage Gli1 inhibition
T2 construct: expressed in transfected cells
T2 sequence (P56726 33-793): as the sequence (P56726 33-793 W539L) above, with L507W counted along it
Procedure: as §1, §2, §3

mouse SMO^D473H = biological target: T3, mouse SMO^D473H (Mus musculus, UniProt P56726, D477H); test: Mouse assay: Gli1 qPCR in MEF cells stably expressing mouse SMO D473H; conditions: mSHh-treated, 24 hours; for IC50: Gli1 inhibition by qPCR, read-out: Mouse D473H pIC50 (converted); for Mouse D473H % Inh: percentage Gli1 inhibition
T3 construct: expressed in transfected cells
T3 sequence (P56726 33-793 D477H): as the sequence (P56726 33-793 W539L) above, with D445H, L507W counted along it
Procedure: as §1, §2, §3

IC50 (mouse SMO^W535L) [nM] | Mouse W535L % Inh (mouse SMO^W535L) [%] | IC50 (mouse SMO^WT) [nM] | Mouse WT % Inh (mouse SMO^WT) [%] | IC50 (mouse SMO^D473H) [nM] | Mouse D473H % Inh (mouse SMO^D473H) [%] | SMILES
100 | 63.9 | 12.6 | 99.1 | 251 | 97.9 | O=C(Nc1ccc(-c2nc(-c3cccc(F)c3)n[nH]2)cc1)c1cccc(CN2CCS(=O)(=O)CC2)c1 [Example 3-10, 3-[(1,1-Dioxo-1,4-thiazinan-4-yl)methyl]-N-[4-[3-(3-fluorophenyl)-1H-1,2,4-triazol-5-yl]phenyl]benzamide]
200 | 70.7 | 25.1 | 98.5 | 200 | 97.3 | O=C(Nc1ccc(-c2nc(CC3CC3)n[nH]2)cc1)c1cccc(CN2CCS(=O)(=O)CC2)c1 [Example 3-7, N-[4-[3-(Cyclopropylmethyl)-1H-1,2,4-triazol-5-yl]phenyl]-3-[(1,1-dioxo-1,4-thiazinan-4-yl)methyl]benzamide]
20 | 72.5 | 2 | 97.5 | 12.6 | 98.8 | Cc1ccc(Cc2nc(-c3ccc(NC(=O)c4cccc(CN5CCS(=O)(=O)CC5)c4)cc3)no2)cc1 [Example 4-16, 3-[(1,1-Dioxo-1,4-thiazinan-4-yl)methyl]-N-[4-[5-[(4-methylphenyl)methyl]-1,2,4-oxadiazol-3-yl]phenyl]benzamide]
200 | 77.1 | 20 | 99.1 | 158 | 96.6 | CC(C)c1n[nH]c(-c2ccc(NC(=O)c3cccc(CN4CCS(=O)(=O)CC4)c3)cc2)n1.Cl [Example 3-1, 3-[(1,1-dioxo-1,4-thiazinan-4-yl)methyl]-N-[4-(3-propan-2-yl-1H-1,2,4-triazol-5-yl)phenyl]benzamide]
31.6 | 60.1 | 7.94 | 98.5 | 63.1 | 98.2 | COc1cccc(Cc2n[nH]c(-c3ccc(NC(=O)c4cccc(CN5CCS(=O)(=O)CC5)c4)cc3)n2)c1 [Example 3-22, 3-[(1,1-Dioxo-1,4-thiazinan-4-yl)methy]-N-[4-[5-[(3-methoxyphenyl)methyl]-1H-1,2,4-triazol-3-yl]phenyl]benzamide]
100 | 41.6 | 25.1 | 97.3 | 501 | 91.0 | CC(C)(C)c1n[nH]c(-c2ccc(NC(=O)c3cccc(CN4CCS(=O)(=O)CC4)c3)cc2)n1 [Example 3-2, N-[4-(5-tert-Butyl-1H-1,2,4-triazol-3-yl)phenyl]-3-[(1,1-dioxo-1,4-thiazinan-4-yl)methyl]benzamide]
39.8 | 80.5 | 2 | 98.5 | 100 | 97.4 | Cc1ccc(Cc2n[nH]c(-c3ccc(NC(=O)c4cccc(CN5CCS(=O)(=O)CC5)c4)cc3)n2)cc1C [Example 3-25, N-[4-[5-[(3,4-Dimethylphenyl)methyl]-1H-1,2,4-triazol-3-yl]phenyl]-3-[(1,1-dioxo-1,4-thiazinan-4-yl)methyl]benzamide]
79.4 | 68.2 | 15.8 | 96.5 | 200 | 95.3 | O=C(Nc1ccc(-c2nc(C3CC3)n[nH]2)cc1)c1cc(CN2CCS(=O)(=O)CC2)ccc1F [Example 2-1, N-[4-(5-Cyclopropyl-1H-1,2,4-triazol-3-yl)phenyl]-5-[(1,1-dioxo-1,4-thiazinan-4-yl)methyl]-2-fluorobenzamide]
398 | 53.4 | 79.4 | 98.9 | 1000 | 97.0 | O=C(Nc1ccc(-c2nc(-c3ccccn3)n[nH]2)cc1)c1cccc(CN2CCS(=O)(=O)CC2)c1 [Example 3-15, 3-[(1,1-Dioxo-1,4-thiazinan-4-yl)methyl]-N-[4-(3-pyridin-2-yl-1H-1,2,4-triazol-5-yl)phenyl]benzamide]
158 | 57.8 | 10 | 99.6 | 39.8 | 99.8 | Cl.O=C(Nc1ccc(-c2noc(C3CC3)n2)cc1)c1cccc(CN2CCS(=O)(=O)CC2)c1 [Example 4-12, N-[4-(5-Cyclopropyl-1,2,4-oxadiazol-3-yl)phenyl]-3-[(1,1-dioxo-1,4-thiazinan-4-yl)methyl]benzamide]
200 | 63.0 | 25.1 | 98.0 | 200 | 97.7 | Cl.O=C(Nc1ccc(-c2nc(C3CCC3)n[nH]2)cc1)c1cccc(CN2CCS(=O)(=O)CC2)c1 [Example 3-4, N-[4-(3-Cyclobutyl-1H-1,2,4-triazol-5-yl)phenyl]-3-[(1,1-dioxo-1,4-thiazinan-4-yl)methyl]benzamide]
25.1 | 65.7 | 3.16 | 98.5 | 79.4 | 98.1 | Cc1ccc(Cc2n[nH]c(-c3ccc(NC(=O)c4cccc(CN5CCS(=O)(=O)CC5)c4)cc3)n2)cc1 [Example 3-18, 3-[(1,1-Dioxo-1,4-thiazinan-4-yl)methyl]-N-[4-[5-[(4-methylphenyl)methyl]-1H-1,2,4-triazol-3-yl]phenyl]benzamide]
794 | 70.0 | 39.8 | 99.6 | 316 | 99.1 | CN(C)c1nnc(-c2ccc(NC(=O)c3cccc(CN4CCS(=O)(=O)CC4)c3)cc2)o1 [Example 4-9, N-[4-[5-(Dimethylamino)-1,3,4-oxadiazol-2-yl]phenyl]-3-[(1,1-dioxo-1,4-thiazinan-4-yl)methyl]benzamide]
501 | 65.9 | 79.4 | 98.9 | 794 | 94.9 | Cl.O=C(Nc1ccc(-c2nnc(C3CC3)o2)cc1)c1cccc(CN2CCS(=O)(=O)CC2)c1 [Example 4-8, N-[4-(5-Cyclopropyl-1,3,4-oxadiazol-2-yl)phenyl]-3-[(1,1-dioxo-1,4-thiazinan-4-yl)methyl]benzamide]
79.4 | 76.5 | 20 | 94.4 | 158 | 93.9 | O=C(Nc1ccc(-c2nc(C3CC3)n[nH]2)cc1)c1ccc(F)c(CN2CCS(=O)(=O)CC2)c1 [Example 2-3, N-[4-(5-Cyclopropyl-1H-1,2,4-triazol-3-yl)phenyl]-3-[(1,1-dioxo-1,4-thiazinan-4-yl)methyl]-4-fluorobenzamide]
158 | 77.7 | 6.31 | 99.5 | 50.1 | 98.5 | Cl.Cn1nc(-c2ccc(NC(=O)c3cccc(CN4CCS(=O)(=O)CC4)c3)cc2)nc1C1CC1 [Example 4-27, N-[4-(5-cyclopropyl-1-methyl-1,2,4-triazol-3-yl)phenyl]-3-[(1,1-dioxo-1,4-thiazinan-4-yl)methyl]benzamide]
39.8 | 64.3 | 25.1 | 99.1 | 316 | 96.9 | O=C(Nc1ccc(-c2nc(Cc3ccccc3F)n[nH]2)cc1)c1cccc(CN2CCS(=O)(=O)CC2)c1 [Example 3-19, 3-[(1,1-Dioxo-1,4-thiazinan-4-yl)methy]-N-[4-[3-[(2-fluorophenyl)methyl]-1H-1,2,4-triazol-5-yl]phenyl]benzamide]
501 | 77.4 | 50.1 | 98.8 | 316 | 99.0 | O=C(Nc1ccc(-c2noc(C3CCC3)n2)cc1)c1cccc(CN2CCS(=O)(=O)CC2)c1 [Example 4-13, N-[4-(5-Cyclobutyl-1,2,4-oxadiazol-3-yl)phenyl]-3-[(1,1-dioxo-1,4-thiazinan-4-yl)methyl]benzamide]
